Reference: patent EP0443568B1, “Fused thiophene derivatives, their production and use” (Takeda Chemical Industries, Ltd., priority 1990, dated 1991)

Columns and labels:
A-II-receptor = molecular target: T1, A-II-receptor (Bos taurus, UniProt P25104); test: Inhibition of binding of angiotensin-II to angiotensin receptor (radio receptor assay, 125I-A-II); conditions: membrane fraction of bovine adrenal cortex, room temperature, one hour, read-out: Radio Receptor Assay IC₅₀
T1 construct: An A-II-receptor was prepared from the membrane fraction of bovine adrenal cortex; from tissue; host or cells: bovine adrenal cortex membrane fraction
T1 sequence (P25104 1-359): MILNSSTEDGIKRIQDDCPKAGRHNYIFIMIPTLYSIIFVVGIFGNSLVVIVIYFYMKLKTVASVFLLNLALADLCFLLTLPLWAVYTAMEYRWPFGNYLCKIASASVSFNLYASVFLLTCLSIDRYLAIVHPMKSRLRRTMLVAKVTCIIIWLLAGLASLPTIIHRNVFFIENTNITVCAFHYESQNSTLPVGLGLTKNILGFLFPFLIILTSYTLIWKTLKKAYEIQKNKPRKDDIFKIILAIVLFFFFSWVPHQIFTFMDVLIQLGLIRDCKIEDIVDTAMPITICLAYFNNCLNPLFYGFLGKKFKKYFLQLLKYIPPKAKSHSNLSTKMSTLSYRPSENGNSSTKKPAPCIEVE
Procedure: An experiment of inhibition on the binding of angiotensin-II (A-II) to A-II-receptor was conducted by modifying the method of Douglas et al. [Endocrinology, 102, 685-696 (1978)]. An A-II-receptor was prepared from the membrane fraction of bovine adrenal cortex.
The compound of the present invention (10⁻⁹M to 3 × 10⁻⁵M ) and ¹²⁵I-A-II (1.85 kBq/50 µ l) were added to the receptor membrane fraction, and the mixture was incubated at room temperature for one hour. The receptor-bound and free ¹²⁵I-A-II were separated through a filter (Whatman GF/B filter), and the radioactivity of ¹²⁵I-A-II bound to the receptor was measured.

[1] = system: A-II-induced pressor action; test: Inhibitory effect on pressor action of A-II in rats after oral administration; assay type: in vivo, Jcl : SD rats; conditions: Rattus norvegicus, p.o., A-II 100 ng/kg intravenous, male SD rats, read-out: Pressor Response (30 mg/Kg, p.o.)
Procedure: Jcl : SD rats (9 week old, male) were used. On the day previous to the experiment, these animals were applied with cannulation into the femoral artery and vein under anesthesia with pentobarbital Na. The animals were fasted but allowed to access freely to drinking water until the experiment was started. Just on the day of conducting the experiment, the artery cannula was connected with a blood-pressure transducer, and the average blood pressure was recorded by means of polygraph. Before administration of the drug, the pressor action due to intravenous administration of A-II (100 ng/kg) as the control was measured. The drugs were orally administered, and then, at each point of the measurement, A-II was administered intravenously, and the pressor action was similarly measured. By comparing the pressor action before and after administration of the drug, the percent inhibition by the drug on A-II-induced pressor action was evaluated.

| SMILES | IC50 (A-II-receptor) [nM] | inhibition in vivo at 30 mg/kg [1] [%] |
| --- | --- | --- |
| CCOC(=O)c1cn(Cc2ccc(-c3ccccc3C(=O)O)cc2)c2sc(CC)cc2c1=O [compound 11] | 210 | – |
| CCc1cc2c(=O)c(C(=O)NCc3ccccc3)cn(Cc3ccc(-c4ccccc4-c4nn[nH]n4)cc3)c2s1 [compound 12] | 60 | ≥ 70 |
| CCc1cc2c(=O)c(C(=O)NCC(C)C)cn(Cc3ccc(-c4ccccc4-c4nn[nH]n4)cc3)c2s1 [compound 14] | 130 | – |
| CCc1cc2c(=O)c(C(=O)NCCO)cn(Cc3ccc(-c4ccccc4-c4nn[nH]n4)cc3)c2s1 [compound 15] | 50 | – |
| CCOC(=O)c1cn(Cc2ccc(-c3ccccc3-c3nn[nH]n3)cc2)c2sc(C#N)cc2c1=O [compound 20] | 670 | – |
| CCc1cc2c(=O)c(C(=O)NCc3ccccc3OC)cn(Cc3ccc(-c4ccccc4-c4nn[nH]n4)cc3)c2s1 [compound 21] | 250 | ≥ 70 |
| CCc1cc2c(=O)c(C(=O)NC(C)c3ccccc3)cn(Cc3ccc(-c4ccccc4-c4nn[nH]n4)cc3)c2s1 (stereo not shown) [compound 25] | 780 | ≥ 70 |
| CCc1cc2c(=O)c(C(=O)NCc3ccccc3F)cn(Cc3ccc(-c4ccccc4-c4nn[nH]n4)cc3)c2s1 [compound 26] | 210 | ≥ 70 |
| CCc1cc2c(=O)c(C(=O)NCc3ccc(C)cc3)cn(Cc3ccc(-c4ccccc4-c4nn[nH]n4)cc3)c2s1 [compound 28] | 220 | 50 to 70 |
| CCc1cc2c(=O)c(C(=O)NCc3ccccn3)cn(Cc3ccc(-c4ccccc4-c4nn[nH]n4)cc3)c2s1 [compound 30] | 20 | ≥ 70 |

The next lines start with results.

| IC50 (A-II-receptor) [nM] | SMILES | inhibition in vivo at 30 mg/kg [1] [%] |
| --- | --- | --- |
| 50 | CCOC(=O)c1cn(Cc2ccc(-c3ccccc3-c3nn[nH]n3)cc2)c2sc(CC)cc2c1=O [compound 2] | – |
| 70 | CCOC(=O)c1cn(Cc2ccc(-c3ccccc3-c3nn[nH]n3)cc2)c2sc(Br)cc2c1=O [compound 3] | – |
| 200 | CCOC(=O)c1cn(Cc2ccc(-c3ccccc3-c3nn[nH]n3)cc2)c2sccc2c1=O [compound 4] | – |
| 50 | CCOC(=O)c1cn(Cc2ccc(-c3ccccc3-c3nn[nH]n3)cc2)c2sc(C)cc2c1=O [compound 5] | – |
| 90 | CCCc1cc2c(=O)c(C(=O)OCC)cn(Cc3ccc(-c4ccccc4-c4nn[nH]n4)cc3)c2s1 [compound 6] | – |
| 170 | CCc1cc2c(=O)c(C(=O)OCC(C)C)cn(Cc3ccc(-c4ccccc4-c4nn[nH]n4)cc3)c2s1 [compound 7] | – |
| 10 | CCc1cc2c(=O)c(C(=O)OCCOC)cn(Cc3ccc(-c4ccccc4-c4nn[nH]n4)cc3)c2s1 [compound 8] | – |
| 40 | CCc1cc2c(=O)c(C(=O)O)cn(Cc3ccc(-c4ccccc4-c4nn[nH]n4)cc3)c2s1 [compound 10] | 50 to 70 |
| 20 | CCc1cc2c(=O)c(C(N)=O)cn(Cc3ccc(-c4ccccc4-c4nn[nH]n4)cc3)c2s1 [compound 13] | – |
| 120 | CCc1cc2c(=O)c(C(=O)Nc3ccccc3)cn(Cc3ccc(-c4ccccc4-c4nn[nH]n4)cc3)c2s1 [compound 16] | ≥ 70 |
| 170 | CCc1cc2c(=O)c(C(=O)NCc3ccc(F)cc3)cn(Cc3ccc(-c4ccccc4-c4nn[nH]n4)cc3)c2s1 [compound 23] | ≥ 70 |
| 190 | CCc1cc2c(=O)c(C(=O)NCc3cccc(F)c3)cn(Cc3ccc(-c4ccccc4-c4nn[nH]n4)cc3)c2s1 [compound 24] | ≥ 70 |
| 120 | CCc1cc2c(=O)c(C(=O)NCc3ccccc3C)cn(Cc3ccc(-c4ccccc4-c4nn[nH]n4)cc3)c2s1 [compound 29] | ≥ 70 |
